Reference: patent US20240109891A1, “NOVEL SUBSTITUTED TRICYCLIC AZA-HETEROCYCLES AS SOS1 INHIBITORS” (Viva Star Biosciences (Suzhou) Co., Ltd., priority 2021, published 2024)

Key:
[1] = molecular target: T1, KRAS G12D and SOS1 proteins (Homo sapiens, UniProt Q07889); experiment: KRAS-G12D/SOS1 binding assay (HTRF); conditions: Tag1-SOS1 / Tag2-KRAS G12D, 10 μM GTP
T1 construct: purchased Cisbio 63ADK000CB17PEG
T1 sequence (Q07889 1-1333): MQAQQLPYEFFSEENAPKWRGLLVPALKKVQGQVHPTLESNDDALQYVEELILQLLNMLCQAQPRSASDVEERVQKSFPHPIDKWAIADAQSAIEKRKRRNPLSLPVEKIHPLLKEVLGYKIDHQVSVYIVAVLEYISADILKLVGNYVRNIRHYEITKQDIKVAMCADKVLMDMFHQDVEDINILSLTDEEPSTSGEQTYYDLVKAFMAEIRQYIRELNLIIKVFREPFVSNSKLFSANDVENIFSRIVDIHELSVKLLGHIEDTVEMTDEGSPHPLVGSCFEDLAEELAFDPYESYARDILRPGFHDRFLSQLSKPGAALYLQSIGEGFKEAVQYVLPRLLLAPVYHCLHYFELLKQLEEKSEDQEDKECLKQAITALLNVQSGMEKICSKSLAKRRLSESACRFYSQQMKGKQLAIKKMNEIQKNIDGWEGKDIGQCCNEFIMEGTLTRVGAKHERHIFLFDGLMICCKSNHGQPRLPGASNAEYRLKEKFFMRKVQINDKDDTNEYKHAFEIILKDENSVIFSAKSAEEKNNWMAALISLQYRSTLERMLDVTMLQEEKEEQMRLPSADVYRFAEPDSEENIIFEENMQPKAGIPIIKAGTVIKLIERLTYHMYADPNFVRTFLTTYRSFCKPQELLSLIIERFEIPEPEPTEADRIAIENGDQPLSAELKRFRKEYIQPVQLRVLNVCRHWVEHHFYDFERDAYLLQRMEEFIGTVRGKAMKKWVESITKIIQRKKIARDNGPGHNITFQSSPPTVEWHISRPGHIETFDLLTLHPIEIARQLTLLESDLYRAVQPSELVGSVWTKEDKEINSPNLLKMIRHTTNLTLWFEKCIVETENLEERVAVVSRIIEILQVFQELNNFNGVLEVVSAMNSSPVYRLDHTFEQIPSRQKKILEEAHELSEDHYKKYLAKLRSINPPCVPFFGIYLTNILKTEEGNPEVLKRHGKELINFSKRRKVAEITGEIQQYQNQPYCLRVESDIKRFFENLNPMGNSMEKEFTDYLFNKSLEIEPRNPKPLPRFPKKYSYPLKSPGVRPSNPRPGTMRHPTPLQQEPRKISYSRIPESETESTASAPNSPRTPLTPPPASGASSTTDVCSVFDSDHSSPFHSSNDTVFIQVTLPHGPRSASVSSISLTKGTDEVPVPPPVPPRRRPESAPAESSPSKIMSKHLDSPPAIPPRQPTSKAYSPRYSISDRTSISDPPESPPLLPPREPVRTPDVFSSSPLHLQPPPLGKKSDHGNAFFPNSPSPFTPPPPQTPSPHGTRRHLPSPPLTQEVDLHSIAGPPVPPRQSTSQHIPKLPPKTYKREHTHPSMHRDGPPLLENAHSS
Protocol: (§1) KRAS-WT (or G12C/G12D/G12V)/SOS1 Binding Assay
(§2) Low IC50 values are indicative of high potency of the SOS1 inhibitor compounds in this assay setting.
(§3) The KRAS-WT (or G12C/G12D/G12V)/SOS1 binding assay is performed using an assay kit (Cisbio, Cat #63ADK000CB15PEG or 63ADK000CB16PEG/63ADK000CB17PEG/63ADK000CB18PEG) according to the procedure recommended by the manufacturer. • 1) Thaw and prepare the working solution of Tag1-SOS1 protein and Tag2-KRAS-WT (or G12C/G12D/G12V) protein with final concentration of 10 μM GTP (Sigma, Cat #V900868). • 2) Thaw and prepare the working solution of anti-Tag1-Tb^3+ anti-Tag2-XL665. • 3) Dispense 2 μL of serially diluted compound, 4 μL of Tag1-SOS1 protein and 4 μL of Tag2-KRAS-WT (or G12C/G12D/G12V) protein with GTP into a ProxiPlate-384 Plus, white 384-shallow well microplate (PerkinElmer, Cat #6008280). • 4) Incubate the plate for 15 minutes at room temperature. • 5) Dispense 10 μL of pre-mixed anti-Tag1-Tb^3+ and anti-Tag2-XL665 into the plate. • 6) Seal the plate and incubate for 2 hours at room temperature. • 7) Remove the plate sealer and read on PHERAstar FS (BMG LABTECH, PHERAstar FS). • 8) Calculate the ratio of the acceptor and donor emission signals for each individual well using the following equation.
(§4) [formula] • 9) IC50 values are fitted and calculated by HTRF signal values and log of compound concentrations to nonlinear regression [Log (inhibitor) vs. Response−Variable Slope (four parameters)] using the GraphPad Prism 8.0.

[2] = molecular target: T2, KRAS-WT and SOS1 proteins (Homo sapiens, UniProt Q07889); experiment: KRAS-WT/SOS1 binding assay (HTRF); conditions: Tag1-SOS1 / Tag2-KRAS-WT, 10 μM GTP, read-out: Activity Data in Kras: SOS1 Assay, Wild Type
T2 construct: purchased Cisbio 63ADK000CB15PEG
T2 sequence (Q07889 1-1333): T1 sequence (Q07889 1-1333)
Protocol: as §1, §2, §3, §4

## CC(=O)N1CCC(c2cc3c(N[C@H](C)c4cccc5c4CCC5(F)F)nc(C)nc3n3cnnc23)CC1 [Example 7, (R)-1-(4-(4-((1-(1,1-difluoro-2,3-dihydro-1H-inden-4-yl)ethyl)amino)-2-methyl-[1,2,4]triazolo[4′,3′:1,6]pyrido[2,3-d]pyrimidin-6-yl)piperidin-1-yl)ethanone]
[1]
  IC50: < 100 nM
[2]
  IC50: < 100 nM

## Cc1nc(N[C@H](C)c2cccc3c2CCC3(F)F)c2cc(C3CCN(S(C)(=O)=O)CC3)c3nncn3c2n1 [Example 8, (R)-N-(1-(1,1-difluoro-2,3-dihydro-1H-inden-4-yl)ethyl)-2-methyl-6-(1-(methylsulfonyl)piperidin-4-yl)-[1,2,4]triazolo[4′,3′:1,6]pyrido[2,3-d]pyrimidin-4-amine]
[1]
  IC50: < 100 nM
[2]
  IC50: < 100 nM

## CC(=O)N1CCC(c2cc3c(N[C@H](C)c4cccc(C(F)(F)F)c4)nc(C)nc3n3cnnc23)CC1 [Example 9, (R)-1-(4-(2-methyl-4-((1-(3-(trifluoromethyl)phenyl)ethyl)amino)-[1,2,4]triazolo[4′,3′:1,6]pyrido[2,3-d]pyrimidin-6-yl)piperidin-1-yl)ethan-1-one]
[1]
  IC50: < 100 nM
[2]
  IC50: < 100 nM

## COCC(=O)N1CCC(c2cc3c(N[C@H](C)c4cccc5c4CCC5(F)F)nc(C)nc3n3cnnc23)CC1 [Example 10, (R)-1-(4-(4-((1-(1,1-difluoro-2,3-dihydro-1H-inden-4-yl)ethyl)amino)-2-methyl-[1,2,4]triazolo[4′,3′:1,6]pyrido[2,3-d]pyrimidin-6-yl)piperidin-1-yl)-2-methoxyethan-1-one]
[1]
  IC50: < 100 nM
[2]
  IC50: < 100 nM

## COCC(=O)N1CCC(c2cc3c(N[C@H](C)c4cccc(C(F)(F)CO)c4)nc(C)nc3n3cnnc23)CC1 [Example 11, (R)-1-(4-(4-((1-(3-(1,1-difluoro-2-hydroxyethyl)phenyl)ethyl)amino)-2-methyl-[1,2,4]triazolo[4′,3′:1,6]pyrido[2,3-d]pyrimidin-6-yl)piperidin-1-yl)-2-methoxyethan-1-one]
[1]
  IC50: < 100 nM
[2]
  IC50: < 100 nM

## CC(=O)N1CCC(c2cc3c(N[C@H](C)c4cccc(C(F)(F)CO)c4)nc(C)nc3n3cnnc23)CC1 [Example 12, (R)-1-(4-(4-((1-(3-(1,1-difluoro-2-hydroxyethyl)phenyl)ethyl)amino)-2-methyl-[1,2,4]triazolo[4′,3′:1,6]pyrido[2,3-d]pyrimidin-6-yl)piperidin-1-yl)ethan-1-one]
[1]
  IC50: < 100 nM
[2]
  IC50: < 100 nM

## CC(=O)N1CCC(c2cc3c(N[C@H](C)c4cc(C(C)(C)O)cc(C(F)(F)F)c4)nc(C)nc3n3cnnc23)CC1 [Example 13, (R)-1-(4-(4-((1-(3-(2-hydroxypropan-2-yl)-5-(trifluoromethyl)phenyl)ethyl)amino)-2-methyl-[1,2,4]triazolo[4′,3′:1,6]pyrido[2,3-d]pyrimidin-6-yl)piperidin-1-yl)ethan-1-one]
[1]
  IC50: > 5000 nM
[2]
  IC50: > 5000 nM

## Cc1nc(N[C@H](C)c2cccc(C(F)(F)CO)c2)c2cc(C3CCNCC3)c3nncn3c2n1 [Example 14, (R)-2,2-difluoro-2-(3-(1-((2-methyl-6-(piperidin-4-yl)-[1,2,4]triazolo[4′,3′:1,6]pyrido[2,3-d]pyrimidin-4-yl)amino)ethyl)phenyl)ethan-1-ol]
[1]
  IC50: < 100 nM
[2]
  IC50: < 100 nM

## Cc1nc(N[C@H](C)c2cccc(C(F)(F)CO)c2)c2cc([C@H]3CC[C@@H](O)CC3)c3nncn3c2n1 [Example 15, Cis-(R)-4-(4-((1-(3-(1,1-difluoro-2-hydroxyethyl)phenyl)ethyl)amino)-2-methyl-[1,2,4]triazolo[4′,3′:1,6]pyrido[2,3-d]pyrimidin-6-yl)cyclohexan-1-ol]
[1]
  IC50: < 100 nM
[2]
  IC50: < 100 nM

## Cc1nc(N[C@H](C)c2cccc(C(F)(F)CO)c2)c2cc([C@H]3CC[C@H](O)CC3)c3nncn3c2n1 [Example 16, Trans-(R)-4-(4-((1-(3-(1,1-difluoro-2-hydroxyethyl)phenyl)ethyl)amino)-2-methyl-[1,2,4]triazolo[4′,3′:1,6]pyrido[2,3-d]pyrimidin-6-yl)cyclohexan-1-ol]
[1]
  IC50: < 100 nM
[2]
  IC50: < 100 nM

## Cc1nc(N[C@H](C)c2cccc(C(F)(F)F)c2)c2cc(O[C@H]3CCOC3)c3nncn3c2n1 [Example 17, 12-methyl-7-(oxolan-3-yloxy)-N-[(1R)-1-[3-(trifluoromethyl)phenyl]ethyl]-2,4,5,11,13-pentaazatricyclo[7.4.0.0^{2,6}]trideca-1(9),3,5,7,10,12-hexaen-10-amine]
[1]
  IC50: 100 to 500 nM
[2]
  IC50: 100 to 500 nM

## Cc1nc(N[C@H](C)c2cc(N)cc(C(F)(F)F)c2)c2cc(O[C@H]3CCOC3)c3nncn3c2n1 [Example 18, N-[(1R)-1-[3-amino-5-(trifluoromethyl)phenyl]ethyl]-12-methyl-7-(oxolan-3-yloxy)-2,4,5,11,13-pentaazatricyclo[7.4.0.0^{2,6}]trideca-1(9),3,5,7,10,12-hexaen-10-amine]
[1]
  IC50: < 100 nM
[2]
  IC50: < 100 nM

## Cc1nc(N[C@H](C)c2cccc3c2CCC3(F)F)c2cc(O[C@H]3CCOC3)c3nncn3c2n1 [Example 19, N-((R)-1-(1,1-difluoro-2,3-dihydro-1H-inden-4-yl)ethyl)-2-methyl-6-(((S)-tetrahydrofuran-3-yl)oxy)-[1,2,4]triazolo[4′,3′:1,6]pyrido[2,3-d]pyrimidin-4-amine]
[1]
  IC50: < 100 nM
[2]
  IC50: < 100 nM

## Cc1nc(N[C@H](C)c2cccc(C(F)(F)CO)c2)c2cc(O[C@H]3CCOC3)c3nncn3c2n1 [Example 20, 2,2-difluoro-2-(3-((R)-1-((2-methyl-6-(((S)-tetrahydrofuran-3-yl)oxy)-[1,2,4]triazolo[4′,3′:1,6]pyrido[2,3-d]pyrimidin-4-yl)amino)ethyl)phenyl)ethan-1-ol]
[1]
  IC50: 100 to 500 nM
[2]
  IC50: < 100 nM

## CC(=O)N1CC[C@H](Oc2cc3c(N[C@H](C)c4cccc5c4CCC5(F)F)nc(C)nc3n3cnnc23)C1 [Example 21, 1-((S)-3-((4-(((R)-1-(1,1-difluoro-2,3-dihydro-1H-inden-4-yl)ethyl)amino)-2-methyl-[1,2,4]triazolo[4′,3′:1,6]pyrido[2,3-d]pyrimidin-6-yl)oxy)pyrrolidin-1-yl)ethan-1-one]
[1]
  IC50: < 100 nM
[2]
  IC50: < 100 nM

## Cc1nc(N[C@H](C)c2cccc(C(F)(F)CO)c2)c2cc(O[C@H]3CCN(C)C3)c3nncn3c2n1 [Example 22, 2,2-difluoro-2-(3-((R)-1-((2-methyl-6-(((S)-1-methylpyrrolidin-3-yl)oxy)-[1,2,4]triazolo[4′,3′:1,6]pyrido[2,3-d]pyrimidin-4-yl)amino)ethyl)phenyl)ethan-1-ol]
[1]
  IC50: < 100 nM
[2]
  IC50: < 100 nM
